# Measurements from publication PMC11249646, “Small-Molecule Disruptors of the Interaction between Calcium- and Integrin-Binding Protein 1 and Integrin αIIbβ3 as Novel Antiplatelet Agents” (ACS Pharmacology & Translational Science, 2024).
# pEC50, pIC50: −log10 of the molar value. Where two headings read alike, the source gives them in different places.
# Tests used:
# [1] = In vitro ADME: solubility; type: physicochemical; details: read-out: Solubility
# [2] = target: T1, GST-CIB1 : F-αIIb peptide (Homo sapiens, UniProt Q99828); assay: FP assay in the presence of glutathione (GSH), thiol reactivity; type: binding
# T1 construct: made in house; host or cells: BL-21 plus RIL cells (E. coli)
# T1 sequence (Q99828 1-191): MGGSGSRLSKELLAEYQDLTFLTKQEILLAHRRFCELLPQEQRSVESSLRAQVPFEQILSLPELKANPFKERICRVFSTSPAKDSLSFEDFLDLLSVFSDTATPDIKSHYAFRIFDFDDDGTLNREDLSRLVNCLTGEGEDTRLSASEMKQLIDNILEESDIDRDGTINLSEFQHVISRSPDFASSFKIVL
# [3] = target: T2, GST-CIB1:F-αIIb interaction (Homo sapiens, UniProt Q99828); assay: Gel-based (in-gel) binding assay; details: 1 μM GST-CIB1, 400 nM F-αIIb; 60 μM, 1:2, 4-points
# T2 construct: made in house; host or cells: BL-21 plus RIL cells (E. coli)
# T2 sequence (Q99828 1-191): T1 sequence (Q99828 1-191)
# [4] = In vitro ADME: PAMPA permeability
# [5] = target: T3, CIB1-(His)6 : F-αIIb peptide (Homo sapiens, UniProt Q99828); assay: MST competitive binding study; details: 200 nM F-αIIb, 4 μM CIB1-(His)6; n = 3/concentration
# T3 construct: made in house
# T3 sequence (Q99828 1-191): T1 sequence (Q99828 1-191)
# Description: We sought to resolve this discrepancy by performing a competition binding study similar to the conditions of the FP HTS assay by utilizing the F-αIIb probe.
# Figure 4 MST competitive binding assay. We selected 200 nM F-αIIb and a CIB1 concentration of 4 μM and tested both compounds. […] Panel (B) highlights the concentration range in which we observe different activities between the two compounds.
# The binding affinity of the compounds to the CIB1-(His)6 protein in the presence of αIIb peptide was evaluated using FITC-labeled αIIb as well. Following manufacturer’s recommendation,[66] we first determined a minimum concentration of F-αIIb by performing a titration of the fluorophore (1 μM, 1:2, 8-points; final concentration range of 7.8 nM to 1 μM) in a 10 μL assay volume. Solutions were placed in standard capillaries and evaluated for the fluorescent signal using the Monolith NT.115 instrument. […] CIB1-(His)6 protein was titrated in a 2-fold dilution series (16-points, final concentration range of 15 nM to 500 μM), at a final volume of 12.5 μL. An equal volume of [2×] […] Solutions were placed in standard capillaries, incubated for approximately 1 h, and evaluated for a fluorescent signal with 50% LED excitation power, 20, 40, or 60% MST power (low, medium, high, respectively), MST on-time of 30 s, and off-time of 5 s.
# Compounds were titrated in a 2-fold dilution series (16 points, final concentration range of 6.1 nM to 200 μM) and mixed with an equal volume CIB1-(His)6 protein and F-αIIb peptide (final concentrations of 4 μM and 200 nM, respectively). Solutions were incubated for 1 h at RT, then placed in standard capillaries, and evaluated for fluorescent signal (in triplicate) at the following parameters: 50% LED excitation power, 40% MST power, MST on-time of 30 s, and off-time of 5 s using Monolith NT.115 instrument. Dissociation constant (Kd) values were calculated by fitting the thermophoresis signal at 20 s of the thermograph using the MO Affinity Analysis software (Nanotemper Technologies, Munich, Germany) and confirmed using Graphpad Prism 7.
structure (smiles),measurement,setting,value
COc1ccccc1C(=O)c1no[n+]([O-])c1C(=O)c1ccccc1OC.O=C(O)C(F)(F)F [NCGC00351170-01],solubility,[1],> 52 µg/mL
same,pIC50,"[2]; FP assay in the presence of glutathione (GSH +), read-out: GSH (+) Assay IC50",5.92
same,pIC50,"[2]; FP assay without glutathione (GSH -), read-out: GSH (-) Assay IC50",5.40
same,GSH/CIB1 IC50 ratio,[2]; ratio of GSH (+) IC50 to GSH (-) IC50,0.3
same,GSH Assay Result,[2]; thiol reactivity call: No change / Active,No change
same,Active in Gel Assay?,[3],YES
same,Papp,[4],102 ×10⁻⁶ cm/s
same,pEC50,[5],5.68
